Assay results as given in US12201640B2, “19-nor C3,3-disubstituted C21-n-pyrazolyl steroids and methods of use thereof” (Sage Therapeutics, Inc., priority 2013, dated 2025).

Experiments:
PTZ-treated mice = assay: Acute PTZ (pentylenetetrazol-induced seizure) assay in mice; format: in vivo, mouse; details: PO, latency to tonic seizures
Protocol: The anticonvulsant effect of test compounds were assessed in the pentylenetetazol-induced seizure assay in mice similar to methods described in Giardina & Gasior (2009) Curr Protoc Pharmacol., Chapter 5. Male CD-1 mice were housed in groups of five under controlled conditions (temperature of 22±2° C. and 12:12 light-dark cycle, lights on at 8:00 am) and water and food were available ad libitum. The mice were housed for 1 week prior to behavioral testing, at which time they weighed 25-35 g. Pentylenetetrazol (PTZ, Sigma) was dissolved in sterile 0.9% saline at a concentration of 12 mg/mL concentration for subcutaneous administration. Test compounds were formulated and administered via oral gavage or intraperitoneal injection at a predetermined time-point (typically 30 or 60 minutes) prior to PTZ injection. All solutions were made fresh and were given in a volume of 10 ml/kg body weight.
Mice were acclimated to the test room for at least 30 min before compound administration. Mice were randomized into at least four test groups (vehicle and at least three doses of the test compound) with 10 mice per group. […] Following the drug pretreatment time the mice were injected s.c. with PTZ (120 mg/kg). Immediately following the PTZ injection, mice were individually placed into observation chambers (25×15×15 cm) and a three-channel timer was started. Each mouse was continuously observed for 30 min and the following behaviors were recorded by observers blinded to the treatments: 1) latency to clonic convulsions that persist for 3 sec and followed by an absence of righting reflex 2) latency to tonic convulsions, characterized by the rigid extension of all four limbs that exceeded a 90 degree angle with the body 3) latency to death 4) number of clonic and tonic convulsions. Data are presented as mean±S.E.M and one-way analysis of variance with Dunnett's or Bonferroni's post-hoc test was used to detect significant differences in latency and number between the vehicle and dose group. p values<0.05 were regarded as statistically significant.

GABAA receptor α1β2γ2 = molecular target: T1, GABAA receptor α1β2γ2 (Homo sapiens, UniProt P14867+P47870); assay: Patch clamp electrophysiology, Qpatch in Ltk cells; format: cell-based; details: 10 μM test article, GABA EC20 2 μM, read-out: GABA (α1β2γ2) Qpatch in Ltk, % efficacy at 10 μM
T1 construct: expressed in transfected cells
T1 sequence (P14867 28-456): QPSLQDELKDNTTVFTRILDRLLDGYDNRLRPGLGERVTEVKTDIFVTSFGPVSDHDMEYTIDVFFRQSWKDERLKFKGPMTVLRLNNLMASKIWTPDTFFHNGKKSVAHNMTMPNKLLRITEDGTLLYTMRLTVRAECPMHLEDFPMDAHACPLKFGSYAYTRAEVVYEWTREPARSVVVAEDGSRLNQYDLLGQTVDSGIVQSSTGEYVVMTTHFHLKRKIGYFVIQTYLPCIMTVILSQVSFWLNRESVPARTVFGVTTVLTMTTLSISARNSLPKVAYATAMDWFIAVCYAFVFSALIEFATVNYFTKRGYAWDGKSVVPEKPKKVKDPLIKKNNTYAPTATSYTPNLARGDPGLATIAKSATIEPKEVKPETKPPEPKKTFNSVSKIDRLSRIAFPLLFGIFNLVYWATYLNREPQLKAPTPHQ
T1 sequence (P47870 25-512 limits assumed): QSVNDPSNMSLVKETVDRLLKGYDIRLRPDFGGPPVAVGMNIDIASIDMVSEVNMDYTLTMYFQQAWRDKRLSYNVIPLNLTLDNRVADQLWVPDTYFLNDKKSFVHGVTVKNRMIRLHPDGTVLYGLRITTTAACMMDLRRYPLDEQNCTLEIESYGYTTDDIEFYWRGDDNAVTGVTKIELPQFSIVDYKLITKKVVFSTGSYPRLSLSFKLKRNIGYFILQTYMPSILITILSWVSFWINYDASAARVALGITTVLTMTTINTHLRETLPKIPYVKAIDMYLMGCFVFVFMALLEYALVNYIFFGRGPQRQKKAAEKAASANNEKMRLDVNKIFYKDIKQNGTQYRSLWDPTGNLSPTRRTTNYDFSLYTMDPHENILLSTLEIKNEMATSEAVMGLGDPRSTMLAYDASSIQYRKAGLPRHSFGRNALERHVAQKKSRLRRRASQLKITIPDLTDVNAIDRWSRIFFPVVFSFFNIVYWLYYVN
T1 sequence (P18507 40-475 partner): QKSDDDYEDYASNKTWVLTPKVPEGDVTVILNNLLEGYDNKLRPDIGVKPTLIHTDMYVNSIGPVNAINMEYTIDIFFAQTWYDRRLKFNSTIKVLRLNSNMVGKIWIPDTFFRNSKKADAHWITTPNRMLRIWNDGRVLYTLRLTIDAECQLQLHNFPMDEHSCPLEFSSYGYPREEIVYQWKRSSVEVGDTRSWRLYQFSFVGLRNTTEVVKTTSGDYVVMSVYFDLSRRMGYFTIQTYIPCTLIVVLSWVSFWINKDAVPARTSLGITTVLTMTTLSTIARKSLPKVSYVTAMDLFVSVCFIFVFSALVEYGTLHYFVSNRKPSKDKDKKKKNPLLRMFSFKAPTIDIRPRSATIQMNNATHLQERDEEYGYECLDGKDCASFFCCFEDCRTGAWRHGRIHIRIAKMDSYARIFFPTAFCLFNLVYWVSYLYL
Protocol: (§1) Patch Clamp Electrophysiology of Recombinant α1β2γ2 and α4β3δ GABAA Receptors
(§2) Cellular electrophysiology is used to measure the pharmacological properties of our GABAA receptor modulators in heterologous cell systems. Each compound is tested for its ability to affect GABA mediated currents at a submaximal agonist dose (GABA EC20=2 μM). LTK cells are stably transfected with the α1β2γ2 subunits of the GABA receptor and CHO cells are transiently transfected with the α4β3δ subunits via the Lipofecatamine method. Cells were passaged at a confluence of about 50-80% and then seeded onto 35 mm sterile culture dishes containing 2 ml culture complete medium without antibiotics or antimycotics. Confluent clusters of cells are electrically coupled (Pritchett et al., Science, 1988, 242, 1306-1308.). Because responses in distant cells are not adequately voltage clamped and because of uncertainties about the extent of coupling (Verdoorn et al., Neuron 1990, 4, 919-928.), cells were cultivated at a density that enables the recording of single cells (without visible connections to other cells).
(§3) Whole cell currents were measured with HEKA EPC-10 amplifiers using PatchMaster software or by using the high throughput QPatch platform (Sophion). Bath solution for all experiments contained (in mM): NaCl 137 mM, KCl 4 mM, CaCl2 1.8 mM, MgCl2 1 mM, HEPES 10 mM, D-Glucose 10 mM, pH (NaOH) 7.4. In some cases 0.005% cremophor was also added. Intracellular (pipette) solution contained: KCl 130 mM, MgCl2 1 mM, Mg-ATP 5 mM, HEPES 10 mM, EGTA 5 mM, pH 7.2. During experiments, cells and solutions were maintained at room temperature (19° C.-30° C.). For manual patch clamp recordings, cell culture dishes were placed on the dish holder of the microscope and continuously perfused (1 ml/min) with bath solution. After formation of a Gigaohm seal between the patch electrodes and the cell (pipette resistance range: 2.5 MΩ-6.0 MΩ; seal resistance range: >1 GΩ) the cell membrane across the pipette tip was ruptured to assure electrical access to the cell interior (whole-cell patch-configuration). For experiments using the QPatch system, cells were transferred as suspension to the QPatch system in the bath solution and automated whole cell recordings were performed.
(§4) Cells were voltage clamped at a holding potential of −80 mV. For the analysis of test articles, GABA receptors were stimulated by 2 μM GABA after sequential pre-incubation of increasing concentrations of the test article. Pre-incubation duration was 30 s and the duration of the GABA stimulus was 2 s. Test articles were dissolved in DMSO to form stock solutions (10 mM). Test articles were diluted to 0.01, 0.1, 1, and 10 μM in bath solution. All concentrations of test articles were tested on each cell. The relative percentage potentiation was defined as the peak amplitude in response to GABA EC20 in the presence of the test article divided by the peak amplitude in response to GABA EC20 alone, multiplied by 100.

GABAA receptor α4β3δ = molecular target: T2, GABAA receptor α4β3δ (Homo sapiens, UniProt P28472+P48169); assay: Patch clamp electrophysiology, manual patch in CHO cells; format: cell-based; details: 10 μM test article, GABA EC20 2 μM, read-out: GABA (α4β3δ) Manual patch in CHO, % efficacy at 10 μM
T2 construct: expressed in transfected cells; host or cells: CHO cells (transient, lipofection)
T2 sequence (P48169 36-554): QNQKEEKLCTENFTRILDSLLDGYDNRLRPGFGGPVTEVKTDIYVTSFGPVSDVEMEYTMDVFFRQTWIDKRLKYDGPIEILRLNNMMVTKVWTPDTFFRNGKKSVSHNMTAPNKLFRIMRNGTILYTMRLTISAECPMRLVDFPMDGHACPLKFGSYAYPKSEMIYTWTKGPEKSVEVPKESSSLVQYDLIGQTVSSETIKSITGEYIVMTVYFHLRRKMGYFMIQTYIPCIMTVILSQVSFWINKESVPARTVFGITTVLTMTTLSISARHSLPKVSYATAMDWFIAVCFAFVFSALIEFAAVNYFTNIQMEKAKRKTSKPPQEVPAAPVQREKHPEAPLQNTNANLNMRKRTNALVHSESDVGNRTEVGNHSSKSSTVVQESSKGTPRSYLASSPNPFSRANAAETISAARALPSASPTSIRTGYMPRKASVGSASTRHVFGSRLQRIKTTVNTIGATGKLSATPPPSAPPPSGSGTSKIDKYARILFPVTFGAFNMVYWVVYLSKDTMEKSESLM
T2 sequence (P28472 26-473): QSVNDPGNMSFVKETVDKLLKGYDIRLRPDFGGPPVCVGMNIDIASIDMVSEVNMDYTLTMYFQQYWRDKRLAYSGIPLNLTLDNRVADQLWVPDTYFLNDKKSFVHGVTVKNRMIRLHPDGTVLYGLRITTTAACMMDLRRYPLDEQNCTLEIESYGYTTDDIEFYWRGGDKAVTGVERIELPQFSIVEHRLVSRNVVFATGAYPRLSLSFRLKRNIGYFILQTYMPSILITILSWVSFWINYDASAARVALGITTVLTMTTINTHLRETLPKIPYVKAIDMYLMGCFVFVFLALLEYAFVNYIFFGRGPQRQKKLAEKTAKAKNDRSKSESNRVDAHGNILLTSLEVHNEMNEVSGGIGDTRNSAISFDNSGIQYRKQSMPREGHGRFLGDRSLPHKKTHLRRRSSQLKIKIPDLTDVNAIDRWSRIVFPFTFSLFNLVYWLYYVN
T2 sequence (O14764 25-452 partner): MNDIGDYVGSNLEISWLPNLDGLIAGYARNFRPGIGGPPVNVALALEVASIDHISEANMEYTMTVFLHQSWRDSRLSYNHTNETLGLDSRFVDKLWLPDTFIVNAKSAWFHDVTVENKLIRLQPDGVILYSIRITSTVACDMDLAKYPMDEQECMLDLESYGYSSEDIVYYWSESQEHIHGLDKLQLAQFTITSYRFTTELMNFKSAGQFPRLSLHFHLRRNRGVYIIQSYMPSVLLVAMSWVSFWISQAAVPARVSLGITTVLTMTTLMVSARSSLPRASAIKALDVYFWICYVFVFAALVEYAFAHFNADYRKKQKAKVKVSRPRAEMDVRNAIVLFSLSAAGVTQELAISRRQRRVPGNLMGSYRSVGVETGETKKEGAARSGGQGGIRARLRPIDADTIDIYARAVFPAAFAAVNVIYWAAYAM
Protocol: as §1, §2, §3, §4

male Sprague Dawley rats = assay: Loss of righting reflex in rats; format: in vivo; details: Rat IV, 5 mpk
Protocol: Loss of Righting Reflex in Rats
The plasma pharmacokinetics and a qualitative assessment of sedation were obtained in male
Sprague Dawley rats according to the following procedure. Rats were dosed by intravenous bolus dose (60 seconds) via the foot dorsal vein at doses ranging from 5 to 15 mg/kg in an appropriate vehicle. In order to assess sedation, rats were gently restrained by hand to a lateral position for dose administration. […] If the animal was unable to return to an upright position, the time was recorded as the onset of loss of righting reflex (LRR). […] Sluggish or incomplete righting twice consecutively within a 30 second interval qualifies as a loss of righting reflex. After onset of LRR, animals were assessed every 5 minutes in the same manner. Recovery of righting reflex is defined as the ability of a rat to right itself completely within 20 seconds of being placed in dorsal recumbency. The duration of LRR is defined as the time interval between LRR and the return of righting reflex.

## C[C@@]1(O)CC[C@H]2[C@H](CC[C@@H]3[C@@H]2CC[C@]2(C)[C@@H](C(=O)Cn4cc(S(C)(=O)=O)cn4)CC[C@@H]32)C1 [SA-17]
PTZ-treated mice
  Anticonvulsive Effect Dose (minimal effective anticonvulsant dose): A (PO) (<3 mpk)
GABAA receptor α1β2γ2
  Emax at 10 µM: 100 to 500%
GABAA receptor α4β3δ
  Emax at 10 µM: 100 to 500%

## C[C@@]1(O)CC[C@H]2[C@H](CC[C@@H]3[C@@H]2CC[C@]2(C)[C@@H](C(=O)Cn4ccc(C#N)n4)CC[C@@H]32)C1 [SA-22]
PTZ-treated mice
  Anticonvulsive Effect Dose (minimal effective anticonvulsant dose): A (PO) (<3 mpk)
GABAA receptor α1β2γ2
  Emax at 10 µM: > 500%
Male Sprague Dawley rats
  Duration of Rat LRR: B (15-60 min)
GABAA receptor α4β3δ
  Emax at 10 µM: 100 to 500%
